Publication PMC8230802, “The Effects of Food on Cannabidiol Bioaccessibility” (Molecules, 2021)
Several values for one entry are separate records, joined by “and”; a condition that tells them apart may be missing. Equal entries are not always repeated. Where two headings read alike, the source gives them in different places.

Key:
[1] = Fasted state three-phase in vitro digestion of CBD; type: in vitro ADME; conditions: for Micellarization efficiency: CBD in AQ / DG x 100; for Digestive stability: CBD in DG / raw material x 100
Experimental: The three-step in vitro digestion employed to mimic the human digestive tract in this study consisted of an oral phase, a gastric phase, and an intestinal phase. The method used was modified slightly from a previously described protocol. For the fasted state digestion oral phase, 10 mg and 100 mg of CBD were added to 1 mL distilled water in a 50 mL pyrex glass centrifuge tube (DAIGGER Scientific, Hamilton, NJ, USA) and mixed with 1 mL oral fluid. The mixtures were vortexed for 30 s and immediately the gastric phase of digestion was started by adding pepsin into NaHCO3 and the pH was adjusted to 2.5. The mixtures were blanketed with nitrogen gas, wrapped in parafilm, and shaken in a 37 °C incubator for 1 h in the dark at 95 rpm. Meanwhile, the intestinal phase was prepared (Table S1) by mixing bile in NaHCO3 and sonicating it for 45 min. For the intestinal phase, the pancreatin-lipase (2 mL of 2:1 ratio) was mixed into the same solution as bile salt. The enzyme solution and the bile solution were added to the tube containing the gastric phase and the pH was adjusted to 6.5 using 1N NaOH. The digestion sample tubes were blanketed with nitrogen and shaken for another 2 h at 37 °C in the dark at 95 rpm. After completion of the intestinal phase, 4 mL of the resulting Digesta (DG) was transferred into conical tubes, diluted with acetonitrile DG: Acetonitrile 1:2 (v/v), blanketed with nitrogen, and kept at −80 °C for analysis by UPLC-MS. The remaining volumes of the DG samples were centrifuged at 10,000× g at 4 °C for 60 min (Beckman L7-65 Ultracentrifuge, Beckman Instruments, Palo Alto, CA, USA). After centrifugation, the aqueous supernatant (AQ) containing the micellar fractions were filtered through the 0.22 µm pore (VWR, USA), diluted with acetonitrile AQ: Acetonitrile 1:2 (v/v) and stored at −80 °C for further analysis. The insoluble pellet was dissolved into the acetonitrile 1:2 (v/v) for further analysis.
(§1) Diluted AQ and DG fractions were filtered using the 0.2 µm nylon filters for DG fraction and injected for analysis by ultra-performance liquid chromatography-mass spectrometry (UPLC-MS) to obtain CBD concentration values. Percent (%) recovery values were calculated for CBD using the following equation:(1) % Recovery=Concentration in AQ/Concentration in DG×100
(§2) CBD was quantified in pellet (P), digesta (DG) and aqueous (AQ) fractions by liquid chromatography—mass spectrometry. Digestive stability, the percentage recovery of CBD in DG fraction was calculated by dividing the moles of CBD quantified in DG by the moles of CBD quantified in raw material (RM) multiplied by 100. The micellarization efficiency is the percentage of CBD recovered in the AQ phase of digestion and was calculated by dividing the moles of CBD in AQ by the moles of CBD in DG multiplied by 100.

[2] = Fed state three-phase in vitro digestion of CBD (olive oil and baby food); type: in vitro ADME; conditions: for Digestive stability: CBD in DG / raw material x 100
Experimental: For the fed in vitro digestion experiment, CBD was mixed with foods and oil. Briefly, 10 mg and 100 mg CBD were each first mixed with 0.5 g olive oil, and then added to 2 g baby food (Turkey and Gravy, Gerber, IL, USA). The oral phase samples were vortexed for 30 s followed by the gastric and intestinal phase protocols mentioned above. After the completion of the three-phase in vitro digestion procedure, 15 mL of the DG sample was collected, blanketed with nitrogen and kept at −80 °C for further analysis. The rest of the DG sample was centrifuged at 10,000× g for 1 h at 4 °C and the AQ fraction was collected, filtered, diluted in acetonitrile 1:2 (v/v) and blanketed with nitrogen and kept at −80 °C for the UPLC-MS analysis.
as §1, §2

[3] = MS/MS survey of metabolites in digestion phases; type: in vitro ADME; conditions: DG, AQ and P phases, negative ion mode
Experimental: To further confirm the presence of any metabolites in the DG, AQ, and P phases, an MS/MS survey was performed on negative ion mode with the inclusion list of all the masses for the expected metabolites (Table S2). The setting for TOF MSMS function was as follows: centroid data format, negative mode and polarity, mass rages from 100 to 1000, time 0 min to 25.0 min and scan time 2.1 s with inter scan time of 0.1 s. The instrument parameters were as follows: capillary 3000.0 V, sample cone 35.0 V, source temperature 100 °C and collision energy 5.0.

[4] = parameters: method as in PMID 6262948; conditions: Rhesus monkeys, on average; cited from earlier work
[5] = parameters: method as in PMID 27648135; conditions: rats; cited from earlier work
[6] = with sesame oil; cited from earlier work
lipase = test: Lipase activity assay with pNPP substrate; type: biochemical
Experimental: The lipase, pancreatin and bile were purchased from Sigma-Aldrich. The p-nitrophenyl palmitate (pNPP), a […] compound (N2752, Sigma-Aldrich), was used as a substrate for the lipase enzyme as previously described. Upon hydrolysis of palmitate from pNPP, the resulting product is 4-nitrophenol (4-NP), and can be measured spectrophotometrically at 410 nm.
Final assay enzyme concentrations were 1:2 mg/mL lipase:pancreatin and 1:2:3 mg/mL lipase: pancreatin:bile using 96 well plates separately just as in the artificial digestion protocol. Controls consisted of phosphate buffer and lipase enzyme without substrate pNPP. Experimental wells contained substrate pNPP in phosphate buffer and the lipase enzyme. All experimental and control wells were performed in triplicate. Temperature was set at 37 °C and the spectrophotometer was set to collect kinetic data over 2 h for the lipase: pancreatin (1:2) experiment. Substrate concentrations were 0.1 mM and 1.0 mM and were made from the 10.0 mM stock solution of pNPP in isopropanol. 4-NP dilutions in phosphate buffer were used to make a standard curve ranging from 5–1000 µM.
On a separate 96 well plate, the same procedure was followed for the lipase: pancreatin: bile salt (1:2:3) experiment. Control and experimental samples were the same as mentioned above for the 1:2 mg/mL lipase: pancreatin experiment. […] After an incubation period of 30 min at 37 °C, 25 µL of the reaction mixture (supernatant) was taken and immediately mixed with 1 mL of 0.1 N NaOH in a 1 mL cuvette to stop the reaction and dilute the sample. The liberated pNP was detected at 410 nm, and bile salt interference was corrected by using a blank without substrate for background subtraction. The reaction rates for this experiment were obtained from the slope of the absorbance versus the time curve by using an extinction coefficient for the p-nitrophenol (pNP) that was determined from the absorbance of pNP as a standard solution.

Work on `C=C(C)[C@@H]1CCC(C)=C[C@H]1c1c(O)cc(CCCCC)cc1O` [CBD, Cannabidiol] yielded a Micellarization efficiency ([1]; 10 mg CBD) of 0.65 ± 0.7%, a Digestive stability ([1]; 10 mg CBD) of 72.99 ± 6% and a recovery at 3 h, 10 mg CBD per digestion (in 1 mL water + 1 mL oral fluid) ([1]; 10 mg CBD, read-out: % recovery in aqueous (AQ) micellar fraction) of 0.69 ± 1.5%. It also gave a recovery at 3 h, 10 mg CBD per digestion (in 1 mL water + 1 mL oral fluid) ([1]; 10 mg CBD, read-out: % recovery in digesta (DG)) of 73 ± 6%, a recovery at 3 h, 10 mg CBD per digestion (in 1 mL water + 1 mL oral fluid) ([1]; 10 mg CBD, read-out: % recovery in pellet (P)) of 92.2 ± 10% and a Micellarization efficiency ([1]; 100 mg CBD) of 0.14 ± 0.1%. The Digestive stability ([1]; 100 mg CBD) was 95.67 ± 2%, the recovery at 3 h, 100 mg CBD per digestion (in 1 mL water + 1 mL oral fluid) ([1]; 100 mg CBD, read-out: % recovery in aqueous (AQ) micellar fraction) was 0.15 ± 1% and the recovery at 3 h, 100 mg CBD per digestion (in 1 mL water + 1 mL oral fluid) ([1]; 100 mg CBD, read-out: % recovery in digesta (DG)) was 95.7 ± 2%. For the same compound, the recovery at 3 h, 100 mg CBD per digestion (in 1 mL water + 1 mL oral fluid) ([1]; 100 mg CBD, read-out: % recovery in pellet (P)) was 74.1 ± 1.3%, the “Increase in CBD recovery in the micellar fraction, fed vs fasted state digestion” value ([2]; fed digestion compared to fasted state digestion) was 22 fold and the Micellarization efficiency ([2]; fed state digestion, 10 mg CBD, CBD in AQ / DG x 100) was 14.15 ± 0.6%. For the same compound, the Digestive stability ([2]; fed state digestion, 10 mg CBD) was 91.39 ± 25%, the recovery at 3 h, 10 mg CBD per digestion (in 0.5 g olive oil + 2 g baby food) ([2]; fed state digestion, 10 mg CBD, read-out: % recovery in aqueous (AQ) micellar fraction) was 12.9 ± 7% and the recovery at 3 h, 10 mg CBD per digestion (in 0.5 g olive oil + 2 g baby food) ([2]; fed state digestion, 10 mg CBD, read-out: % recovery in digesta (DG)) was 91.4 ± 25%. For the same compound, the recovery at 3 h, 10 mg CBD per digestion (in 0.5 g olive oil + 2 g baby food) ([2]; fed state digestion, 10 mg CBD, read-out: % recovery in pellet (P)) was 90.2 ± 18%, the Digestive stability ([2]; fed state digestion, 100 mg CBD) was 83.1 ± 25% and the recovery at 3 h, 100 mg CBD per digestion (in 0.5 g olive oil + 2 g baby food) ([2]; fed state digestion, 100 mg CBD, read-out: % recovery in aqueous (AQ) micellar fraction) was 18.6 ± 10%. For the same compound, the recovery at 3 h, 100 mg CBD per digestion (in 0.5 g olive oil + 2 g baby food) ([2]; fed state digestion, 100 mg CBD, read-out: % recovery in digesta (DG)) was 83.1 ± 25%, the recovery at 3 h, 100 mg CBD per digestion (in 0.5 g olive oil + 2 g baby food) ([2]; fed state digestion, 100 mg CBD, read-out: % recovery in pellet (P)) was 87.9 ± 29% and the “Metabolites of CBD in digestion phases (MS/MS survey)” value [3] was “No metabolites of CBD were observed”. The Oral bioavailability [4] was 16%, the “Increase in bioavailability by co-administration of lipids” value [5] was 2.5 fold and the “Recovery / bioavailable in the micellar fraction” value [6] was 30%.

In the case of `CCCCCc1cc(O)c2c(c1)OC(C)(C)[C@@H]1CCC(C)=C[C@@H]21` [THC, Δ9-tetrahydrocannabinol], the “Increase in bioavailability by co-administration of lipids” value [5] is listed as 3 fold and the “Recovery / bioavailable in the micellar fraction” value [6] is listed as 30%.

With `CCCCCCCCCCCCCCCC(=O)Oc1ccc([N+](=O)[O-])cc1` [pNPP, p-nitrophenyl palmitate] the “% mole conversion of pNPP to NP” value (lipase; 0.1 mM pNPP, 1:2:3 lipase:pancreatin:bile) was 95.5 ± 7.6%, the “% mole conversion of pNPP to NP” value (lipase; 0.1 mM pNPP, 1:2 lipase:pancreatin) was 93.6 ± 0.3% and the “% mole conversion of pNPP to NP” value (lipase; 1 mM pNPP, 1:2:3 lipase:pancreatin:bile) was 58.6% and 58.6 ± 5.7%. The “% mole conversion of pNPP to NP” value (lipase; 1 mM pNPP, 1:2 lipase:pancreatin) was 20.6% and 20.6 ± 0.07%.
